Assay results taken from paper PMC2689075 (Current biology : CB, 2009).
pIC50: −log10 of the molar value.

Target: T1, atypical protein kinase C (aPKC) (Drosophila melanogaster, UniProt A1Z9X0)
T1 sequence (A1Z9X0 1-606): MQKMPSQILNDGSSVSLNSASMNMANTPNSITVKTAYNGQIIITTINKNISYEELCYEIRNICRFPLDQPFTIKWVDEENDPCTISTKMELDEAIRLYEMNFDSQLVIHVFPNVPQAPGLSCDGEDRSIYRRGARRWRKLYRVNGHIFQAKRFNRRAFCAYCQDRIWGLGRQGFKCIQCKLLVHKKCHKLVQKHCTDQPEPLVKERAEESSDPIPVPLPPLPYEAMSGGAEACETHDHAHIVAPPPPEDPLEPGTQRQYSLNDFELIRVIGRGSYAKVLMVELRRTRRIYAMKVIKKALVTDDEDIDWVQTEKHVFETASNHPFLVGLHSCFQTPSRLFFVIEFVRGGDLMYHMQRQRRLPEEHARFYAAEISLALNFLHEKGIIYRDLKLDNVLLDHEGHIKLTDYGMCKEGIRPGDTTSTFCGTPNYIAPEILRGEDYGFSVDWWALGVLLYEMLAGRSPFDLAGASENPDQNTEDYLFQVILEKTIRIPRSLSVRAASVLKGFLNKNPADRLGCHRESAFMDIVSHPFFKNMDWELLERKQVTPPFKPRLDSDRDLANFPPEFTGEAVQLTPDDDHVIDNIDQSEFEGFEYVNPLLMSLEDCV
Assay: in vitro […] kinase assay with purified recombinant aPKC
Type: biochemical

## C[C@@H](N)[C@H]1CC[C@H](C(=O)Nc2ccncc2)CC1 [Y-27632]
  pIC50: > 5.00
